Laboratory results: the NIST ThermoML archive (doi:10.1016/j.tca.2008.03.014)
± gives the expanded uncertainty stated by the source.

Settings: Crystal; DTA

With `[F-].[Rb+]` [rubidium fluoride (RbF)] as the compound, how does the Normal melting temperature read?
The Normal melting temperature was 790.1 ± 1 °C.

For `[I-].[Rb+]` [rubidium iodide (RbI)], which Normal melting temperature is on record?
Its Normal melting temperature is 650.00 ± 1 °C.
